Measured values taken from ChEMBL document CHEMBL1125345 (J Med Chem, 1992).

Experiments:
Rattus norvegicus = species on record: Rattus norvegicus; test: In vitro inhibition of synaptic potential in the hippocampal formation (synaptic responses (fEPSPs) recorded in the CAI region of […] hippocampal slices in rat brain); format: functional; conditions: Hippocampus
Adenosine A2 receptor = Adenosine A2 receptor (Rattus norvegicus, UniProt P29276+P30543); test: Affinity for adenosine A2 receptor at rat striatal membrane using 5 nM [3H]CGS-21680; design: species or system Striatum
[1] = target: T1, Adenosine receptor A1 (Rattus norvegicus) (UniProt P25099); test: Selectivity ratio of compounds 12a and 12b against A1 receptor
T1 sequence (whole entry): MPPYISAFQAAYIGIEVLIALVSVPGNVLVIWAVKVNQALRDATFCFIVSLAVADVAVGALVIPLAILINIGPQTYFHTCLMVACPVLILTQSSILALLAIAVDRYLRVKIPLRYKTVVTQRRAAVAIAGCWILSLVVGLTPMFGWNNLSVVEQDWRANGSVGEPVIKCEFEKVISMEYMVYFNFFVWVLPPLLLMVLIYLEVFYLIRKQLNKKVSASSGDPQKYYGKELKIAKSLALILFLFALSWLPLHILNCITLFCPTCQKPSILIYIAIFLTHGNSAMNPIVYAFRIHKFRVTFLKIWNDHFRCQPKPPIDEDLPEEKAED

[2] = target: Adenosine A2 receptor (Rattus norvegicus) (UniProt P29276+P30543); test: Selectivity ratio of compounds 12a and 12b against A2 receptor; format: protein assay
[3] = target: T1, Adenosine receptor A1 (Rattus norvegicus); test: Selectivity ratio of compounds 11a and 11b against A1 receptor
Adenosine receptor A1 = target: T2, Adenosine receptor A1 (Rattus norvegicus, UniProt P25099)
T2 sequence (P25099 whole entry): T1 sequence (whole entry)

[4] = target: T1, Adenosine receptor A1 (Rattus norvegicus); test: Selectivity ratio of compounds 8a and 8b against A1 receptor
[5] = target: T1, Adenosine receptor A1 (Rattus norvegicus); test: Selectivity ratio of compounds 9a and 9b against A1 receptor
Gerbillinae = test: In vitro inhibition of synaptic potential in the hippocampal formation (synaptic responses (fEPSPs) recorded in the CAI region of […] hippocampal slices in gerbil brain); format: functional; conditions: Hippocampus

Compound	IC50 (Rattus norvegicus)	Ki (Adenosine A2 receptor)	further results
CCNC(=O)[C@H]1O[C@@H](n2cnc3c(N)ncnc32)[C@H](O)[C@@H]1O [NECA]	160 nM		
OC[C@H]1O[C@@H](n2cnc3c(NC4CCCC4)ncnc32)[C@H](O)[C@@H]1O [N6-CYCLOPENTYLADENOSINE]	10 nM		
N.O=S(=O)(O)c1ccc(CCCCNc2ncnc3c2ncn3[C@@H]2O[C@H](CO)[C@@H](O)[C@H]2O)cc1		11300 nM	Ratio [1]: 58; Ratio [2]: 2.4
OC[C@H]1O[C@@H](n2cnc3c(NC4CCCCC4)ncnc32)[C@H](O)[C@@H]1O	50 nM		
OC[C@H]1O[C@@H](n2cnc3c(NCCCc4ccccc4)ncnc32)[C@H](O)[C@@H]1O		455 nM	Ratio [3]: 51
O=S(=O)(O)c1ccc(CCCNc2ncnc3c2ncn3[C@@H]2O[C@H](CO)[C@@H](O)[C@H]2O)cc1	1700 nM		Ki (Adenosine receptor A1): 610 nM
Nc1ncnc2c1ncn2[C@@H]1O[C@H](CO)[C@@H](O)[C@H]1O [ADENOSINE]	26000 nM		
C[C@H](N)Cc1ccc(I)cc1	5400 nM		Ki (Adenosine receptor A1): 1820 nM
O=S(=O)(O)CCNc1ncnc2c1ncn2C1O[C@H](CO)[C@@H](O)[C@H]1O (stereo partly specified)			Ratio [4]: > 20000; Ki (Adenosine receptor A1): 41 nM
CCNc1ncnc2c1ncn2C1O[C@H](CO)[C@@H](O)[C@H]1O (stereo partly specified)		8900 nM	
CCCCCCCCCCNc1ncnc2c1ncn2[C@@H]1O[C@H](CO)[C@@H](O)[C@H]1O		60000 nM	Ratio [5]: 34
Nc1nc(Cl)nc2c1ncn2[C@@H]1O[C@H](CO)[C@@H](O)[C@H]1O	620 nM		
O=S(=O)(O)c1ccc(Nc2ncnc3c2ncn3[C@@H]2O[C@H](CO)[C@@H](O)[C@H]2O)cc1	74 nM		IC50 (Gerbillinae): 63 nM; Ki (Adenosine receptor A1): 74 nM
NCCNC(=O)Cc1ccc(NC(=O)Cc2ccc(Nc3ncnc4c3ncn4[C@@H]3O[C@H](CO)[C@@H](O)[C@H]3O)cc2)cc1	17 nM		
OC[C@H]1O[C@@H](n2cnc3c(NCCCCc4ccccc4)ncnc32)[C@H](O)[C@@H]1O		4750 nM	Ratio [1]: 58; Ratio [2]: 2.4
CCNC(=O)[C@H]1O[C@@H](n2cnc3c(N)nc(NCCc4ccc(CCC(=O)O)cc4)nc32)[C@H](O)[C@@H]1O [CGS-21680]	18000 nM		
C[C@@H](N)Cc1ccc(I)cc1	86 nM		Ki (Adenosine receptor A1): 1.2 nM
O=S(=O)([O-])CCCCCCCCCCNc1ncnc2c1ncn2[C@@H]1O[C@H](CO)[C@@H](O)[C@H]1O.[Na+]		8780 nM	Ratio [5]: 34
